{"source": "patent US10485787B2", "about": "“Oral dosage forms of bendamustine and therapeutic use thereof” (ASTELLAS DEUTSCHLAND GMBH, priority 2010, dated 2019)", "key": {"[1]": {"experiment": "Phase 1 crossover study, plasma pharmacokinetics of bendamustine, M3 and M4 (Example 23)", "procedure": "14 patients who were suffering from multiple myeloma, B-cell type chronic lymphocytic leukemia or advanced indolent non-Hodgkin's lymphoma were enrolled and were treated with bendamustine. […] After signing the informed consent form and following the screening period (days −21 to −2), eligible patients were assigned a patient number which was specific for each study site. Patients were randomized to receive one of the following on day 1 followed by the other on day 8: • a single oral dose of 110.2 mg (2×55.1 mg) bendamustine HCl • a single intravenous dose of 100 mg bendamustine HCl\nBendamustine was provided a) orally as capsules, a LFHC formulation (liquid-filled, hard-shell capsule) and b) intravenously as a solution after reconstituting a powder for the preparation of a solution for injection. The LFHC formulation (per capsule) was prepared from 55.1 mg bendamustine hydrochloride, 1.2 mg methylparaben, 0.12 mg […], 0.12 mg butylated hydroxytoluene, 10.9 mg ethanol and 532.56 mg Cremophor® RH40. The vial with powder for concentrate for solution was the marketed product in Germany (Ribomustine®) which contains per vial 100 mg of bendamustine hydrochloride and mannitol as an excipient. This product was reconstituted with water for injection to a final concentration of 2.5 mg/ml of bendamustine HCl and was further diluted with 0.9% NaCl until about 500 ml before administration to the patient, in accordance with the instructions of the package insert.\nPatients were admitted to the study site for 2 periods; days −1 to 2 (period 1) and days 7 to 9 (period 2). A total of 12 patients was to be randomized to receive treatment. Six patients were to receive treatment with a single oral dose of 110.2 mg (2×55.1 mg) bendamustine HCl (day 1) followed by a single intravenous dose of 100 mg bendamustine HCl (day 8) while 6 other patients were to receive treatment in the alternate order. Patients underwent a washout period of at least 7 days between treatments.\nAfter oral and intravenous administration of bendamustine the concentration of bendamustine, as well as that of the active metabolites of bendamustine (M3 and M4), were determined in plasma and urine samples on day 1 and day 8. Patients returned to the study site for an end-of-study visit 7 to 14 days after completion of the second treatment period, or after early discharge/withdrawal. Subsequently the pharmacokinetic parameters of bendamustine and its metabolites were calculated."}, "[2]": {"experiment": "Phase 1 crossover study, urine pharmacokinetics of bendamustine, M3 and M4 (Example 23)", "format": "in vivo, patients", "conditions": "for percentage of the dose excreted in urine as the metabolite: oral administration; for %Aeinf / %Aelast / CL renal: urine, Bendamustine HCl; for CL renal: human; for percentage of the dose excreted in urine unchanged: oral bendamustine", "description": "Bendamustine was provided a) orally as capsules, a LFHC formulation (liquid-filled, hard-shell capsule) and b) intravenously as a solution after reconstituting a powder for the preparation of a solution for injection. The LFHC formulation (per capsule) was prepared from 55.1 mg bendamustine hydrochloride, 1.2 mg methylparaben, 0.12 mg polyparaben, 0.12 mg butylated hydroxytoluene, 10.9 mg ethanol and 532.56 mg Cremophor® RH40. The vial with powder for concentrate for solution was the marketed product in Germany (Ribomustine®) which contains per vial 100 mg of bendamustine hydrochloride and mannitol as an excipient. This product was reconstituted with water for injection to a final concentration of 2.5 mg/ml of bendamustine HCl and was further diluted with 0.9% NaCl until about 500 ml before administration to the patient, in accordance with the instructions of the package insert.\nAfter oral and intravenous administration of bendamustine the concentration of bendamustine, as well as that of the active metabolites of bendamustine (M3 and M4), were determined in plasma and urine samples on day 1 and day 8. […] Subsequently the pharmacokinetic parameters of bendamustine and its metabolites were calculated."}, "[3]": {"conditions": "cited from earlier work"}, "[4]": {"conditions": "a range of organic solvents; cited from earlier work"}, "[5]": {"experiment": "Phase 1 crossover study, safety and tolerability (Example 23)", "format": "in vivo, patients", "conditions": "oral and intravenous single doses", "description": "Bendamustine was provided a) orally as capsules, a LFHC formulation (liquid-filled, hard-shell capsule) and b) intravenously as a solution after reconstituting a powder for the preparation of a solution for injection. The LFHC formulation (per capsule) was prepared from 55.1 mg bendamustine hydrochloride, 1.2 mg methylparaben, 0.12 mg polyparaben, 0.12 mg butylated hydroxytoluene, 10.9 mg ethanol and 532.56 mg Cremophor® RH40. The vial with powder for concentrate for solution was the marketed product in Germany (Ribomustine®) which contains per vial 100 mg of bendamustine hydrochloride and mannitol as an excipient. […]"}, "[6]": {"experiment": "Stability of aqueous solution of bendamustine as a function of pH", "format": "physicochemical"}}, "note": "Counter-ions that a name gives are not always drawn."}
{"compound": "Cn1c(C(O)CCC(=O)O)nc2cc(N(CCCl)CCCl)ccc21", "note": "(stereo not drawn) [Example M3, γ-hydroxybendamustine]", "values": [{"measurement": "Mean AUCinf of bendamustine, times higher than for the metabolite", "setting": "[1]; oral administration", "result": 10.6, "unit": "times"}, {"measurement": "percentage of the dose excreted in urine as the metabolite", "setting": "[2]", "result": 0.6, "unit": "%"}, {"measurement": "%Aeinf", "setting": "[2]; 100 mg intravenously, Mean", "result": 0.459, "unit": "%"}, {"measurement": "%Aelast", "setting": "[2]; 100 mg intravenously, Mean", "result": 0.457, "unit": "%"}, {"measurement": "%Aeinf", "setting": "[2]; 100 mg intravenously, Median", "result": 0.354, "unit": "%"}, {"measurement": "%Aelast", "setting": "[2]; 100 mg intravenously, Median", "result": 0.353, "unit": "%"}, {"measurement": "%Aeinf", "setting": "[2]; 100 mg intravenously, Min-max", "result": "0.018-1.6%"}, {"measurement": "%Aelast", "setting": "[2]; 100 mg intravenously, Min-max", "result": "0.018-1.6%"}, {"measurement": "%Aeinf", "setting": "[2]; 110.2 mg orally, Mean", "result": 0.611, "unit": "%"}, {"measurement": "%Aelast", "setting": "[2]; 110.2 mg orally, Mean", "result": 0.61, "unit": "%"}, {"measurement": "%Aeinf", "setting": "[2]; 110.2 mg orally, Median", "result": 0.537, "unit": "%"}, {"measurement": "%Aelast", "setting": "[2]; 110.2 mg orally, Median", "result": 0.553, "unit": "%"}, {"measurement": "%Aeinf", "setting": "[2]; 110.2 mg orally, Min-max", "result": "0.13-1.5%"}, {"measurement": "%Aelast", "setting": "[2]; 110.2 mg orally, Min-max", "result": "0.12-1.6%"}]}
{"compound": "Cn1c(CCCC(=O)O)nc2cc(N(CCCl)CCCl)ccc21", "note": "[bendamustine hydrochloride]", "values": [{"measurement": "AUC(0-inf)", "setting": "[1]; human, plasma, iv, 100 mg", "result": 4790, "unit": "ng·h/mL"}, {"measurement": "AUC(0-t)", "setting": "[1]; human, plasma, iv, 100 mg", "result": 4780, "unit": "ng·h/mL"}, {"measurement": "Cmax", "setting": "[1]; human, plasma, iv, 100 mg", "result": 5900, "unit": "ng/mL"}, {"measurement": "Vd", "setting": "[1]; human, plasma, iv, 100 mg, Vss, plasma, Bendamustine HCl, 100 mg intravenously, Mean", "result": 10.3, "unit": "L"}, {"measurement": "Vd", "setting": "[1]; human, plasma, iv, 100 mg, Vz, Bendamustine HCl, 100 mg intravenously, Mean", "result": 14.7, "unit": "L"}, {"measurement": "half-life", "setting": "[1]; human, plasma, iv, 100 mg, t1/2, plasma, Bendamustine HCl, 100 mg intravenously, Mean", "result": 30.2, "unit": "min"}, {"measurement": "Tmax", "setting": "[1]; human, plasma, iv, 100 mg, Bendamustine HCl, 100 mg intravenously, Mean", "result": 31.4, "unit": "min"}, {"measurement": "AUC(0-inf)", "setting": "[1]; human, plasma, po, 110.2 mg", "result": 3900, "unit": "ng·h/mL"}, {"measurement": "AUC(0-t)", "setting": "[1]; human, plasma, po, 110.2 mg", "result": 3890, "unit": "ng·h/mL"}, {"measurement": "Cmax", "setting": "[1]; human, plasma, po, 110.2 mg", "result": 3170, "unit": "ng/mL"}, {"measurement": "Vd/F", "setting": "[1]; human, plasma, po, 110.2 mg", "result": 20.2, "unit": "L"}, {"measurement": "half-life", "setting": "[1]; human, plasma, po, 110.2 mg, t1/2, plasma, Bendamustine HCl, 110.2 mg orally, Mean", "result": 27.7, "unit": "min"}, {"measurement": "Tmax", "setting": "[1]; human, plasma, po, 110.2 mg, Bendamustine HCl, 110.2 mg orally, Mean", "result": 56.8, "unit": "min"}, {"measurement": "CL", "setting": "[1]; plasma, Bendamustine HCl, 100 mg intravenously, Mean", "result": 21.2, "unit": "L/h"}, {"measurement": "CL renal", "setting": "[2]; iv, 100 mg, 100 mg intravenously, Mean", "result": 6.42, "unit": "mL/min"}, {"measurement": "CL renal", "setting": "[2]; iv, 100 mg, 100 mg intravenously, Median", "result": 3.37, "unit": "mL/min"}, {"measurement": "CL renal", "setting": "[2]; iv, 100 mg, 100 mg intravenously, Min-max", "result": "1 to 23.3", "unit": "mL/min"}, {"measurement": "CL renal", "setting": "[2]; po, 110.2 mg, 110.2 mg orally, Mean", "result": 13.1, "unit": "mL/min"}, {"measurement": "CL renal", "setting": "[2]; po, 110.2 mg, 110.2 mg orally, Median", "result": 13, "unit": "mL/min"}, {"measurement": "CL renal", "setting": "[2]; po, 110.2 mg, 110.2 mg orally, Min-max", "result": "3 to 33.3", "unit": "mL/min"}, {"measurement": "%Aeinf", "setting": "[2]; 100 mg intravenously, Mean", "result": 2.07, "unit": "%"}, {"measurement": "%Aelast", "setting": "[2]; 100 mg intravenously, Mean", "result": 2.07, "unit": "%"}, {"measurement": "%Aeinf", "setting": "[2]; 100 mg intravenously, Median", "result": 1.22, "unit": "%"}, {"measurement": "%Aelast", "setting": "[2]; 100 mg intravenously, Median", "result": 1.23, "unit": "%"}, {"measurement": "%Aeinf", "setting": "[2]; 100 mg intravenously, Min-max", "result": "0.27-8.8%"}, {"measurement": "%Aelast", "setting": "[2]; 100 mg intravenously, Min-max", "result": "0.27-8.8%"}, {"measurement": "%Aeinf", "setting": "[2]; 110.2 mg orally, Mean", "result": 2.64, "unit": "%"}, {"measurement": "%Aelast", "setting": "[2]; 110.2 mg orally, Mean", "result": 2.66, "unit": "%"}, {"measurement": "%Aeinf", "setting": "[2]; 110.2 mg orally, Median", "result": 2.23, "unit": "%"}, {"measurement": "%Aelast", "setting": "[2]; 110.2 mg orally, Median", "result": 2.23, "unit": "%"}, {"measurement": "%Aeinf", "setting": "[2]; 110.2 mg orally, Min-max", "result": "0.40-5.8%"}, {"measurement": "%Aelast", "setting": "[2]; 110.2 mg orally, Min-max", "result": "0.40-5.9%"}, {"measurement": "time at which maximal plasma levels were detectable", "setting": "[3]; oral capsules, 250-350 mg, 7 patients (Preiss 1985)", "result": "≤ 1", "unit": "h"}, {"measurement": "oral bioavailability, inter-individual range", "setting": "[3]; similar study, Preiss et al. 1989", "result": "25-121%"}, {"measurement": "solubility in organic solvents", "setting": "[4]", "result": "slightly or very slightly soluble"}]}
{"compound": "Cn1c(CCCC(=O)O)nc2cc(N(CCCl)CCCl)ccc21", "note": "[bendamustine, 4-[5-[bis(2-chloroethyl)amino]-1-methylbenzimidazo-2-yl]butanoic acid]", "values": [{"measurement": "clearance", "setting": "[1]; human, plasma, iv, 100 mg", "result": 353, "unit": "mL/min"}, {"measurement": "Vd", "setting": "[1]; human, plasma, iv, 100 mg, Mean VSS, intravenous administration", "result": 10.3, "unit": "L"}, {"measurement": "Vd", "setting": "[1]; human, plasma, iv, 100 mg, Mean VZ, intravenous administration", "result": 14.7, "unit": "L"}, {"measurement": "half-life", "setting": "[1]; human, plasma, iv, 100 mg, Mean t1/2, intravenous administration", "result": "~30", "unit": "min"}, {"measurement": "half-life", "setting": "[1]; human, plasma, po, 110.2 mg, Mean t1/2, oral intake", "result": "~30", "unit": "min"}, {"measurement": "Tmax", "setting": "[1]; human, plasma, po, 110.2 mg, individual values, oral administration", "result": "15 to 108", "unit": "min"}, {"measurement": "Tmax", "setting": "[1]; human, plasma, po, 110.2 mg, oral administration", "result": "~57", "unit": "min"}, {"measurement": "percentage of the dose excreted in urine unchanged", "setting": "[2]", "result": 2.6, "unit": "%"}, {"measurement": "percentage of the dose excreted in urine unchanged", "setting": "[2]; listed as Bendamustine", "result": "Approximately 2.6%"}, {"measurement": "deaths during the study", "setting": "[5]", "result": "No deaths"}, {"measurement": "pH values at which significant hydrolytic decomposition is observed", "setting": "[6]", "result": "higher than 5"}, {"measurement": "oral bioavailability, range", "setting": "[3]; oral capsules, 250-350 mg, patients (Preiss 1985)", "result": "25-94%"}]}
{"compound": "O=C(O)CCCc1nc2cc(N(CCCl)CCCl)ccc2[nH]1", "note": "[Example M4, N-desmethylbendamustine]", "values": [{"measurement": "Mean AUCinf of bendamustine, times higher than for the metabolite", "setting": "[1]; oral administration", "result": 88, "unit": "times"}, {"measurement": "percentage of the dose excreted in urine as the metabolite", "setting": "[2]", "result": 0.1, "unit": "%"}, {"measurement": "%Aeinf", "setting": "[2]; 100 mg intravenously, Mean", "result": 0.081, "unit": "%"}, {"measurement": "%Aelast", "setting": "[2]; 100 mg intravenously, Mean", "result": 0.086, "unit": "%"}, {"measurement": "%Aeinf", "setting": "[2]; 100 mg intravenously, Median", "result": 0.045, "unit": "%"}, {"measurement": "%Aelast", "setting": "[2]; 100 mg intravenously, Median", "result": 0.043, "unit": "%"}, {"measurement": "%Aeinf", "setting": "[2]; 100 mg intravenously, Min-max", "result": "0.0039-0.17%"}, {"measurement": "%Aelast", "setting": "[2]; 100 mg intravenously, Min-max", "result": "0.0028-0.21%"}, {"measurement": "%Aeinf", "setting": "[2]; 110.2 mg orally, Mean", "result": 0.109, "unit": "%"}, {"measurement": "%Aelast", "setting": "[2]; 110.2 mg orally, Mean", "result": 0.113, "unit": "%"}, {"measurement": "%Aeinf", "setting": "[2]; 110.2 mg orally, Median", "result": 0.104, "unit": "%"}, {"measurement": "%Aelast", "setting": "[2]; 110.2 mg orally, Median", "result": 0.104, "unit": "%"}, {"measurement": "%Aeinf", "setting": "[2]; 110.2 mg orally, Min-max", "result": "0.034-0.22%"}, {"measurement": "%Aelast", "setting": "[2]; 110.2 mg orally, Min-max", "result": "0.019-0.21%"}]}
